These results are taken from patent publication US20020032328A1, “Heterocyclic acylsulfimides, processes for their preparation, compositions comprising them and their use as pesticides” (priority 2000, published 2002).

Assay [1] has as its system black bean aphids (Aphis fabae). As to the kind of experiment: Aphis fabae dip test on field bean (plants and aphids dipped in preparation). Type of assay: in vivo. The following applies: read-out: mortality among the aphids.
For assay [2] the test system is unchanged. Kind of assay: Aphis fabae root-systemic test on field bean. The following applies: read-out: mortality among the aphids, by root-systemic action. The class given is in vivo.

Turning to `C/S(=N\C(=O)c1cnccc1C(F)(F)F)c1ccsc1` (stereo not shown) [Example 66], the mortality at 300 ppm in assay [1] was in the range of 90 to 100%. In assay [2], the mortality at 30 ppm was in the range of 90 to 100%.

On to `CS(=O)(=NC(=O)c1cnccc1C(F)(F)F)c1ccc(Oc2cccc(F)c2C#N)cc1` (stereo not shown) [Example 718], for which, in assay [1], the mortality at 300 ppm was 90 to 100%. The mortality at 30 ppm in assay [2] was in the range of 90 to 100%.

Broadly, the mortality is the share of the test organisms that died.
